Key:
[1] = test system: ^14C-cholesterol absorption; test: In vivo testing of cholesterol absorption inhibitors (A); conditions: Mus musculus, po; 0.2 μmol/kg, gavage, procedure A, C57BL/6 female mice
Experimental: In Vivo Testing of Cholesterol Absorption Inhibitors (A)
C57BL/6 female mice were maintained on regular chow diet and housed in individual cages to collect faeces. Mice were fasted for 3 hours and then gavaged with vehicle or compound. Half an hour later the mice were gavaged with radiolabelled cholesterol. Six hours after the ^14C-cholesterol gavage blood samples were taken via the tail and plasma prepared to determine how much cholesterol were absorbed. 24 hours after the gavage of ^14C-cholesterol the mice were bled and plasma were prepared for analysis. Faeces were collected for 24 hours to assess absorption efficiency.

Caco-2 cells = test: Absorption in a Caco-2 cells model; format: in vitro ADME
Experimental: Absorption of the compounds of formula (I) was tested in a Caco-2 cells model (Gastroenterology 1989, 96, 736): […]

`N[C@H](CCCCNC(=O)CNC(=O)COc1ccc([C@@H]2[C@@H](SCC(O)c3ccc(F)cc3)C(=O)N2c2ccc(F)cc2)cc1)C(=O)O` (stereo partly drawn) [Example 10, N^6-(N-{[4-((2R,3R)-1-(4-fluorophenyl)-3-{[2-(4-fluorophenyl)-2-hydroxyethyl]thio}-4-oxoazetidin-2-yl)phenoxy]acetyl}glycyl)-D-lysine] showed an inhibition at 0.2 µmol/kg [1] of 38%.
Compound `CC(=O)[O-].C[N+](C)(C)CCNC(=O)[C@@H](CC1CCCCC1)NC(=O)CNC(=O)COc1ccc([C@@H]2[C@@H](SCC(O)c3ccc(F)cc3)C(=O)N2c2ccc(F)cc2)cc1` (stereo partly drawn) [Example 17, N-{[4-((2R,3R)-1-(4-fluorophenyl)-3-{[(2R or $)-2-(4-fluorophenyl)-2-hydroxyethyl]thio}-4-oxoazetidin-2-yl)phenoxy]acetyl}glycyl-3-cyclohexyl-N-[2-(trimethylammonio)ethyl]-D-alaninamide acetate] has a Caco value (Caco-2 cells) of 0.61 ×10⁻⁶ cm/s.
